# Molecular target: RAC-beta serine/threonine-protein kinase (Homo sapiens, UniProt P31751)
# Experiment: Inhibition of PKBbeta (unknown origin) in presence of [33P-gamma]ATP by scintillation counting
# RAC-beta serine/threonine-protein kinase, sequence (P31751 whole entry): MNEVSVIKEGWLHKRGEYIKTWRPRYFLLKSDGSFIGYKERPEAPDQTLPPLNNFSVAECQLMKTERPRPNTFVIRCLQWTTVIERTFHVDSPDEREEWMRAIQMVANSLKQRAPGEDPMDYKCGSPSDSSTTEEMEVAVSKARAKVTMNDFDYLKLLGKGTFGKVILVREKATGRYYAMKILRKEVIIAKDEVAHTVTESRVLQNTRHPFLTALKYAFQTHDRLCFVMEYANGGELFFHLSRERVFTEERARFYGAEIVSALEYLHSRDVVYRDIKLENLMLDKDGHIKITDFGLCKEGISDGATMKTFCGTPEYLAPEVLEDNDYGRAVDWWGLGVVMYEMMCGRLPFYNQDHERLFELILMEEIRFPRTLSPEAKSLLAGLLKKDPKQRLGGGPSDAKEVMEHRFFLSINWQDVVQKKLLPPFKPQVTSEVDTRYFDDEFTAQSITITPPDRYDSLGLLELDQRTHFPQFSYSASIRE
row,IC50,SMILES
1,660 µM,Cc1n[nH]c(N)c1-c1ccccc1
2,72 µM,Cc1n[nH]c(C)c1-c1ccccc1

# Tested on: not listed separately
# Experiment: Inhibition of 5-FAM peptide binding to Hepatitis C virus full length NS3/4A helicase after 30 mins by FRET assay
# Parameters: species or system Hepacivirus hominis
row,IC50,SMILES
1,500 µM,NCc1ccc(Oc2ccccc2)cc1
2,20 µM,NCc1ccc(F)c(Oc2ccccc2)c1F
3,41 µM,NCc1ccc(Oc2ccccc2)c(Cl)c1
4,130 µM,NCc1cccc(Oc2ccccc2)c1
5,34 µM,NCc1cc(F)c(Oc2ccccc2)c(F)c1
6,180 µM,NCc1ccc(C(=O)c2ccccc2)cc1
